The values that follow are results of earlier work, collected in patent US6238865A, “Simple and efficient method to label and modify 3'-termini of RNA using DNA polymerase and a synthetic template with defined overhang nucleotides” (Chen; Guangtian, priority 1998, dated 2001).

This data set addresses poly(A) polymerase (Saccharomyces cerevisiae, UniProt P29468). To be noted: cited from Lingner et al., J. Biol. Chem. 266:8741-8746, 1991, read-out: Km for ATP.

Chain of poly(A) polymerase (P29468 whole entry): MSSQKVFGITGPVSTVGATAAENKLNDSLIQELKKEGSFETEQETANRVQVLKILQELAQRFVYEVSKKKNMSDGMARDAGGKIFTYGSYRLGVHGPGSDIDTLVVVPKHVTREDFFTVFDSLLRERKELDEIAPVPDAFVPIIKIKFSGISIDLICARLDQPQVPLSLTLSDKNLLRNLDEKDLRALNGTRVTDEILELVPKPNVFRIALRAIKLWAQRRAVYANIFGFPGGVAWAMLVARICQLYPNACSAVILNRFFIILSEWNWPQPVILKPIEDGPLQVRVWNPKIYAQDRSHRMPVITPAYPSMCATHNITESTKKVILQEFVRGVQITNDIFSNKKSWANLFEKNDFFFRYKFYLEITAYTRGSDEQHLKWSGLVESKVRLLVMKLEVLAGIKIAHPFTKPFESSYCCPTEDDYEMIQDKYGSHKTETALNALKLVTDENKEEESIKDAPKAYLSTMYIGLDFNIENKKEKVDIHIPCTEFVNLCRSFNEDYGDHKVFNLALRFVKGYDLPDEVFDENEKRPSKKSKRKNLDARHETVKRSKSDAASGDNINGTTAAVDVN

As for `Nc1ncnc2c1ncn2[C@@H]1O[C@H](COP(=O)(O)OP(=O)(O)OP(=O)(O)O)[C@@H](O)[C@H]1O` [ATP], the Km was 50 µM.

As usually defined, the Km is the substrate concentration at which the rate is half of its maximum.
